Results as given in BindingDB's records for PubMed 38359536 (China Pharmaceutical University).

Target: Protein arginine N-methyltransferase 5 (Homo sapiens, UniProt O14744)
Experiment: Inhibition of human PRMT5 expressed in HEK293 cells coexpressing MEP50 incubated for 60 mins by chemiluminescent assay

Chain of Protein arginine N-methyltransferase 5 (O14744 whole entry): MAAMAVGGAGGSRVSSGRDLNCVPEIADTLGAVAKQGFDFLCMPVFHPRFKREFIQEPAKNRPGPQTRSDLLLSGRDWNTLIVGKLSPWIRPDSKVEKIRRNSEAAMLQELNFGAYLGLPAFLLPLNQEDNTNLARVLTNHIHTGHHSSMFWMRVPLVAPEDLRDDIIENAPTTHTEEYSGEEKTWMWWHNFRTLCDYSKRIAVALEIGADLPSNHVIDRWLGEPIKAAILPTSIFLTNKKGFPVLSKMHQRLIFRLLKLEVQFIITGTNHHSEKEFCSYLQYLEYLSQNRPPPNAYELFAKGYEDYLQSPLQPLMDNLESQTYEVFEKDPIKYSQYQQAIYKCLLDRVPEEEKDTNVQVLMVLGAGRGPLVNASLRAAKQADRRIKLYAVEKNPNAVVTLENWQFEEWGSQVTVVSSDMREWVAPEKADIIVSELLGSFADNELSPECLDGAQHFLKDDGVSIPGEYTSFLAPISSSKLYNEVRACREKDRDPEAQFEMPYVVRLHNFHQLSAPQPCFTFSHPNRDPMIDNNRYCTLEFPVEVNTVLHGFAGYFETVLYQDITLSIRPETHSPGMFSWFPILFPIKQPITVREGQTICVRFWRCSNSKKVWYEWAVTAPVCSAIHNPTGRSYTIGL

CC(=O)N1CCC(Nc2cc(C(=O)NC[C@H](O)CN3CCc4c([nH]c5ccccc45)C3)ncn2)CC1 [(S)-6-((1-acetylpiperidin-4-yl)amino)-N-(2-hydroxy-3-(1,3,4,9-tetrahydro-2H-pyrido [3,4-b]indol-2-yl)propyl)pyrimidine-4-carboxamide]
IC50: 10 nM
